The nature of data set [1]: Clarity of model hand sanitizer (isopropyl myristate / water / ethanol / ethyl-LGK). The class given is physicochemical. The source says:
Thus, a formulation with 30 parts isopropyl myristate, 10 parts water, and 60 parts ethanol was cloudy. […] In either case, the potential for dryness increases due to reduction in emollient or increase in ethanol. […] This formulation retained the balance of emollient and ethanol, while still providing hydration through the presence of water. Alternatively, a portion of the ethanol can be replaced with Et-LGK without sacrificing clarity, even at higher water levels. […] This reduced ethanol formulation was less drying.

A short description of data set [2]: Solubility of oxidation dye intermediates in hair dye bases (saturated solutions, UV-Vis). As to conditions: 27° C., 10 minutes.
Data set [3] can be described thus: Solubility of active agents in neat alkyl ketal esters (dissolution, storage at room temperature).

“And” between values parts separate entries of the source, which are not always exact repeats. Equal entries are not always repeated. A value given as a limit tells only on which side of the number the result lay.

Take `CCCCCCCCCCCCCC(=O)OC(C)C` [isopropyl myristate]: the clarity of formulation entry in data set [1] (27 parts isopropyl myristate, 9 parts of water, 9 parts of ethyl-LGK and 55 parts of ethanol) is reported as “clear solution”; in data set [1] (30 parts isopropyl myristate, 5 parts water, 5 parts ethyl-LGK and 60 parts ethanol) it was “clear solution”; in data set [1] (30 parts isopropyl myristate, 10 parts water, 60 parts ethanol), “cloudy”; in data set [1] (no ketal, emollient level dropped to 22% at the same water level, or to 27% with an increase in ethanol), “clear solution”.
`Nc1ccc(N)cc1` [p-phenylenediamine]: the “Average Solubility % wt./wt., column 26B” value in data set [2] (hair dye base with 7.00% Et-LGK, pH 8.5) is reported as 0.07 % wt./wt. Also, the “Average Solubility % wt./wt., column 26A” value in data set [2] (hair dye base with 7.00% Et-LGK, pH 10.2) turned out to be 0.07 % wt./wt. Besides, in data set [2] (hair dye base with 7.00% Et-LPK, pH 8.5), the “Average Solubility % wt./wt., column 27B” value is reported as less than 0.01 % wt./wt. In addition, in data set [2] (hair dye base with 7.00% Et-LPK, pH 10.2), the “Average Solubility % wt./wt., second column headed 26A” value is 0 % wt./wt. The “% solids dissolved in Bu-LGK with heat, no precipitation” value in data set [3] (solvent Bu-LGK, dissolved at 50-80° C., still soluble after 24 hours at room temperature where stated) was 5%. In addition, the “% solids in Bu-LGK that did not (completely) dissolve” value in data set [3] (solvent Bu-LGK, insoluble, dispersion or partially dissolved) amounted to 25%. The “% solids dissolved in Et-LGK with heat, no precipitation” value in data set [3] (solvent Et-LGK, dissolved at 35-80° C., still soluble after storage at room temperature (24 hours to 5 days) where stated) was 5%. For the same compound, in data set [3] (solvent Et-LPK, insoluble, not completely dissolved or precipitated on room temperature storage), the “% solids in Et-LPK that did not (completely) dissolve or precipitated at room temperature” value was 5% and 1%.
